Measurements as given in patent publication US20260232681A1, “CRYSTALLINE FORMS OF N-[4-[4-(4-MORPHOLINYL)-7H-PYRROLO[2,3-D]PYRIMIDIN-6- YL]PHENYL]-4-[[3(R)-[(L-OXO-2-PROPEN-L-YL)AMINO]-L-PIPERIDINYL]METHYL]-2-PYRIDINECARBOXAMIDE AS A COVALENT INHIBITOR OF MENIN-MLL INTERACTION” (BIOMEA FUSION, INC., priority 2023, published 2026).
Entries after “also recorded” stand apart in the source; their conditions may differ.

What was measured:
[1] = tested on: Zucker Diabetic Fatty (ZDF) rats; assay: Glycemic control in ZDF rats, 16-day dosing plus two-week washout (Examples 102, 105); type: in vivo, rat
Procedure: The present examples provides the ability of Compound 10 to restore glycemic control to diabetic Zucker diabetic fatty rats (ZDF rats, genotype ZDF-Lepr^fa/Crl; Charles River). Cornicelli et al., 2005, Charles River.
Control and test compounds were stored at 4° C. and prepared weekly as needed. The vehicle for positive control pioglitazone was 0.25% carboxymethylcellulose and 1% Tween® 80 in reverse osmosis deionized water. The vehicle for Compound 10 was 10% DMSO, 10% Solutol HS 15, and 80% (10% hydroxypropyl-β-cyclodextrin in 50 mM citrate buffer at pH 3.0).
On Day −3, twenty-four ZDF rats (plus eight spare ZDF rats) were measured for body weight and non-fasting glucose. LabDiet 5008 was provided ad libitum throughout the study, except during designated procedures, as was water. In order to minimize the effects of stress on blood glucose and body, all animals including the spares received daily sham doses with phosphate buffered saline pH 7.2 (dose volume 5 mL/kg) via gavage beginning on Study Day −5 to Day −1.
Vehicle, control, and test compound were administered via oral gavage according to the following design on Days 1-16.
On Days −3, 1, 8, and 14 non-fasting blood glucose was measured. On Day 15, an oral glucose tolerance test was administered. The animals were weighed, and the animals were placed in clean cages without food. Access to water was provided throughout the procedure. The animals were fasted for five hours and a blood glucose measurement was determined. The animals were dosed via oral gavage with 2 g/kg glucose (10 mL/kg). Blood glucose was determined via tail snip. The second drop of blood from the animal was placed on a hand-held glucometer (Abbott Alpha Trak) at the following times relative to the glucose dose: zero (just prior to glucose dose), 15, 30, 60, 90, and 120 min. Following the final blood glucose measurement, food was returned to the cages. On Day 17, 4-hour fasting glucose was measured. Serum samples were used to measure insulin by ELISA. Analysis was performed in one to three days of each collections. On Day 17, terminal blood collection was obtained at about 8 mL per animal and measured for blood glucose.
ZDF rats were treated daily with Compound 10, vehicle, or pioglitazone for sixteen days and monitored for an additional two weeks post-treatment until Day 29. STZ rat models were induced through pre-treatment of animals on a high-fat diet with low doses of streptozotocin at Day −14 and Day −7 prior to starting treatment at Day Zero until Day 16. ZDF and STZ rats were monitored for fasting blood glucose levels, oral glucose tolerance test (OGTT), insulin and C-peptide levels, HOMA-IR (Homeostatic Model Assessment of Insulin Resistance), blood lipemic levels, and body weight according to the schematic for each model below. ZDF rats were analyzed for indicated readouts for fifteen days post-treatment for OGTT at Day 29, and serum insulin and C-peptide at Day 31.
ZDF Rat Model—three treatment groups 1. Vehicle; 2. Compound 10 at 175 mg/kg; and 3. Pioglitazone at 30 mg/kg; n=10 per group. Daily dosing zero to sixteen days QD→drug wash out at sixteen to twenty-nine days. Rats were monitored for the following parameters through dosing and wash out phases—body weight, fasting blood sugar, blood insulin, C-peptide, and OGTT.

[2] = tested on: patient-derived DLBCL Triple Hit Lymphoma (THL) and MYC-amplified PDX samples; assay: Ex vivo DLBCL PDX samples (THL, MYC-amplified), six days; type: cell-based, human; details: THL/R-CHOP-refractory and MYC amplification/R-EPOCH refractory profiles
Procedure: Compound A was tested against a THL cell line (VAL), and a DEL cell line (U2932). An expanded panel of DHL cell lines were tested for sensitivity to Compound A. Ex vivo patient samples of THL and MYC-amplified DLBCL were tested with Compound A. Sensitivity of THL and MYC-driven DLBCL in both in vitro and ex vivo models were compared with clinical reversible menin inhibitors. Compound A was tested against a panel of MM cell lines and ex vivo MM patient samples of p53del, 13qdel, and relapsed/refractory cases.
DLBCL cell line TOLEDO was cultured in the presence of Compound A or clinical reversible menin inhibitors for six and fourteen hours. Menin protein expression was reduced up to 60% at 1 μM by Compound A after fourteen hours compared to clinical reversible inhibitors at <20% at similar concentrations. Menin protein expression was measured by the Wes system and analyzed using the Compass software (automated western blotting, Protein Simple). Signal was normalized to GAPDH and referenced to DMSO control (FIG. 171E). DLBCL and MM cell lines were cultured with Compound A, bortezomib (PS-341), or DMSO for four days and cell proliferation was measured by Cell Titer Glo. Ex vivo studies of DLBCL and MM models were conducted by measurement of cell proliferation (Cell Titer Glo) after six days of treatment with Compound A, PS-341, or DMSO control.

KRAS and MEN1 expression = assay: RNA-seq gene expression in MiaPaCa-2 cells; type: cell-based, human; parameters: dose or concentration left out as unconfirmed; details: MiaPaCa-2 cells after twenty-four hours
Procedure: MOLM-13 and MiaPaCa-2 cells were incubated with Compound A for twenty-four hours and were analyzed by RNA-seq on an Illumina NextSeq 550 platform. […] Cell viability was measured using CellTiterGlo. Human ex vivo PDX tissue models harboring KRAS mutations were cultured with Compound A and clinical reversible menin inhibitors for six days. Cell viability was measured using CellTiter Glo.

[3] = 16 days treatment, listed as Compound 10

## C=CC(=O)N[C@@H]1CCCN(Cc2ccnc(C(=O)Nc3ccc(-c4cc5c(N6CCOCC6)ncnc5[nH]4)cc3)c2)C1 [Compound A, N-[4-[4-(4-morpholinyl)-7H-pyrrolo[2,3-d]pyrimidin-6-yl]phenyl]-4-[[3(R)-[(1-oxo-2-propen-1-yl)amino]-1-piperidinyl]methyl]-2-pyridinecarboxamide]
[1]; [3]
  blood lipemic levels: significantly reduces; also recorded: Significant reductions
  body weight: reduces body weight; also recorded: Significant reductions
[1]; Day 29, after fourteen days of no treatment
  oral glucose tolerance test, glucose control: significant glucose control
[1]; after fifteen days of treatment
  oral glucose tolerance test, glucose control: significant glucose control
[1]; after two weeks of treatment, p<0.05
  serum insulin and C-peptide levels: significantly reduced
[1]; compared to vehicle and control
  insulin in the non-fasting and fasting states: significant reduction
[1]; no therapy for two weeks
  4-hour fasting insulin and glucose: increasing insulin and glucose lowering
[1]; non-fasting and fasting, listed as Compound 10
  insulin resistance (HOMA-IR): significant reduction; also recorded: increases insulin sensitivity; also recorded: reduced
[1]; oral gavage Days 1-16, compared to vehicle and control
  glucose in the non-fasting and fasting states: significant reduction
[1]; two weeks after therapy
  C-peptide: increasing C-peptide
[2]
  growth inhibition of ex vivo patient samples: complete growth inhibition
KRAS and MEN1 expression
  KRAS and MEN1 expression levels: marked reduction
